Each block holds one compound with its values, some of them ahead of it.
How the values were obtained:
[1] = biological target: T1, Serine/threonine-protein kinase ULK1 (Homo sapiens) (UniProt O75385); assay: Selectivity interaction (ActivX KiNativ screen (kinase selectivity in THP-1 cell lysates)) EUB0000639a ULK1; type: subcellular; settings: lysate, at 0.2 µM
T1 sequence (whole entry): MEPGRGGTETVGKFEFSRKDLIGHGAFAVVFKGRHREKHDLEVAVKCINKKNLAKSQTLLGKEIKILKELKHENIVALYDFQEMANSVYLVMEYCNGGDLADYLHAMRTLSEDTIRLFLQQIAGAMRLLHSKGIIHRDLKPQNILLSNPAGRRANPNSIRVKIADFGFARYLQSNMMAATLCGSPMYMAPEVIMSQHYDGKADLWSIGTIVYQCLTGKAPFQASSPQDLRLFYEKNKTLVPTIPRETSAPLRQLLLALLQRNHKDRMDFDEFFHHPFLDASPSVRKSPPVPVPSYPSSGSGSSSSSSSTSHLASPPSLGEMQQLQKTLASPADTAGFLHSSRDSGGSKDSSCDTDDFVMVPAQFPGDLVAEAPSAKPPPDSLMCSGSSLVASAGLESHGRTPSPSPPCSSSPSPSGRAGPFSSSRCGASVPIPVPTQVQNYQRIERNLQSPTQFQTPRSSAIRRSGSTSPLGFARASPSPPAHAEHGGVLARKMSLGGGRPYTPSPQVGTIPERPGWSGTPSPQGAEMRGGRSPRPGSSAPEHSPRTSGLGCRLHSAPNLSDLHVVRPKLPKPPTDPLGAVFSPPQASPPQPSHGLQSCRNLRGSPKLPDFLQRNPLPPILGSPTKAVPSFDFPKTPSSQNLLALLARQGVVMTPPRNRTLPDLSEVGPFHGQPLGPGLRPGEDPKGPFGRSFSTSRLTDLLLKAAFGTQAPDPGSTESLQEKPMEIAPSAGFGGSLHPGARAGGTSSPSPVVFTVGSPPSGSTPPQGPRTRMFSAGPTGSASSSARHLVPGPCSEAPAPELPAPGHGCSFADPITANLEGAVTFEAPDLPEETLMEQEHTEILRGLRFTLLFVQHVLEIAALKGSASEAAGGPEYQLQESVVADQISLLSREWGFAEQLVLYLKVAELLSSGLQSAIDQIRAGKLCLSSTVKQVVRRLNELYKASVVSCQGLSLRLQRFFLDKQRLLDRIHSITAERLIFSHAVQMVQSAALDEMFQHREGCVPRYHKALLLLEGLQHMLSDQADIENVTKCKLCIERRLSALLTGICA

[2] = biological target: Wee1-like protein kinase (Homo sapiens) (UniProt P30291); assay: Selectivity interaction (KinomeScan (DiscoverX)) EUB0001049a WEE1; settings: at 1 µM
Chain of Wee1-like protein kinase (Homo sapiens) (P30291 whole entry, looked up): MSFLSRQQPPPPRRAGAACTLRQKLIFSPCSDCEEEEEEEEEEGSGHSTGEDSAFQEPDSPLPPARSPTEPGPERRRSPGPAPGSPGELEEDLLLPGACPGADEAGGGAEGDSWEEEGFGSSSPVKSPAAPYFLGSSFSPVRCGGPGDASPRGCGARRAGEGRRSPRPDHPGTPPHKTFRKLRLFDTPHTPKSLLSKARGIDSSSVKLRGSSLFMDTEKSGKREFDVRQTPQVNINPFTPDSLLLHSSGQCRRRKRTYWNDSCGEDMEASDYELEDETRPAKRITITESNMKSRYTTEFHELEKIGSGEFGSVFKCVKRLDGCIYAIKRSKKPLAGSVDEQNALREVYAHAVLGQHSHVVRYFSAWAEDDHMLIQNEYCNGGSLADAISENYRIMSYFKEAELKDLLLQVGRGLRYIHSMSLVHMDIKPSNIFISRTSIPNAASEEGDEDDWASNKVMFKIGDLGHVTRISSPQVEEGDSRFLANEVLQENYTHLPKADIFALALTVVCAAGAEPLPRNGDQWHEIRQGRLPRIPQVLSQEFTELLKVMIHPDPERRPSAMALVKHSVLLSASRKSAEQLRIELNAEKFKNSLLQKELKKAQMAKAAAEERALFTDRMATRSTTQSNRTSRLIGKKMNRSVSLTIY

[3] = biological target: T2, Ephrin type-A receptor 3 (Homo sapiens) (UniProt P29320); assay: Selectivity interaction (KinomeScan (DiscoverX)) EUB0000655a EPHA3; settings: at 10 µM
T2 sequence (whole entry): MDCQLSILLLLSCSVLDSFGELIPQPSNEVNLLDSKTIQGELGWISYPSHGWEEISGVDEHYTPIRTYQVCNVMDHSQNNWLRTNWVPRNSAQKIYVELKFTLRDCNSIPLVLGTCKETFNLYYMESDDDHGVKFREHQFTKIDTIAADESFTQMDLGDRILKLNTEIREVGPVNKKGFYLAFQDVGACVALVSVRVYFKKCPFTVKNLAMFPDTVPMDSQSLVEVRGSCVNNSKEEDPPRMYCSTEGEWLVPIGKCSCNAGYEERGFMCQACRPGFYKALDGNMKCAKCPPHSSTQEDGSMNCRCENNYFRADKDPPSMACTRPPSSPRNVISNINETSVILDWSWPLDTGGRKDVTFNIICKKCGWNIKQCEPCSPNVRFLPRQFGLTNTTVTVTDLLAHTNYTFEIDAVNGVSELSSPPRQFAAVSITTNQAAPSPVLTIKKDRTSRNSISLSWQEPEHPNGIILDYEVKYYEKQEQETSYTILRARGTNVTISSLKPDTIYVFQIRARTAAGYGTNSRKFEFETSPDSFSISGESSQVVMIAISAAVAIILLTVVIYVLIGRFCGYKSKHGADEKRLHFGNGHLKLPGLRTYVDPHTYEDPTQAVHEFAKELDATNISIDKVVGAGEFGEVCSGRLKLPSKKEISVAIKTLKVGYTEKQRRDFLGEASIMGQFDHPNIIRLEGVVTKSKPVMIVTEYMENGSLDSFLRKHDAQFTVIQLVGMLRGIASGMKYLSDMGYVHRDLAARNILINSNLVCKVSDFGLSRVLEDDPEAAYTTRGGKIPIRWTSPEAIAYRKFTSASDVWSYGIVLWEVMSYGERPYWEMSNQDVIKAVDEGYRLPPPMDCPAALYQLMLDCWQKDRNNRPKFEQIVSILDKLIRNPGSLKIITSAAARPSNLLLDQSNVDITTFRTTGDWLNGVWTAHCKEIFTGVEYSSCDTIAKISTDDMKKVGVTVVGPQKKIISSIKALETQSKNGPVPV

[4] = biological target: T3, Tyrosine-protein kinase ITK/TSK (Homo sapiens) (UniProt Q08881); assay: Selectivity interaction (KinomeScan (DiscoverX)) EUB0000045b ITK
T3 sequence (whole entry): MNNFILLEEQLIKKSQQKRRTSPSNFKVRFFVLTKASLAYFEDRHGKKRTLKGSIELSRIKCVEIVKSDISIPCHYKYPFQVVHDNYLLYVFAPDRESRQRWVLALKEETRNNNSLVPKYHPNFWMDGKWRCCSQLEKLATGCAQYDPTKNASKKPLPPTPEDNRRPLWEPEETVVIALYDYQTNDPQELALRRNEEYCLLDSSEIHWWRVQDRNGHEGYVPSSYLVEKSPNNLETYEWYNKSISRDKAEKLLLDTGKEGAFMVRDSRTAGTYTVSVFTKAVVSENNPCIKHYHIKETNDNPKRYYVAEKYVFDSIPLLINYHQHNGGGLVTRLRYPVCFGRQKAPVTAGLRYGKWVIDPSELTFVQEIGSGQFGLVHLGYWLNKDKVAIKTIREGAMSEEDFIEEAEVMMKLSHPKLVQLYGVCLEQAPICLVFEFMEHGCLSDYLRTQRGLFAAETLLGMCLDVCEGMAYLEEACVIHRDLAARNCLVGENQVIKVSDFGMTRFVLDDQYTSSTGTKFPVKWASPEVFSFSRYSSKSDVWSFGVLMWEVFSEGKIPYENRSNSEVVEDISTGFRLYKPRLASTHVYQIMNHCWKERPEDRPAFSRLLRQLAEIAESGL

[5] = biological target: Tyrosine-protein kinase SYK (Homo sapiens, UniProt P43405); assay: Selectivity interaction (KinomeScan (DiscoverX)) EUB0000229b SYK; settings: at 10 µM
[6] = biological target: Serine/threonine-protein kinase Chk1 (Homo sapiens, UniProt O14757); assay: Selectivity interaction (Enzyme panel (AstraZeneca, AlphaScreen, functional assay)) EUB0000621a CHEK1
Chain of Serine/threonine-protein kinase Chk1 (O14757 whole entry): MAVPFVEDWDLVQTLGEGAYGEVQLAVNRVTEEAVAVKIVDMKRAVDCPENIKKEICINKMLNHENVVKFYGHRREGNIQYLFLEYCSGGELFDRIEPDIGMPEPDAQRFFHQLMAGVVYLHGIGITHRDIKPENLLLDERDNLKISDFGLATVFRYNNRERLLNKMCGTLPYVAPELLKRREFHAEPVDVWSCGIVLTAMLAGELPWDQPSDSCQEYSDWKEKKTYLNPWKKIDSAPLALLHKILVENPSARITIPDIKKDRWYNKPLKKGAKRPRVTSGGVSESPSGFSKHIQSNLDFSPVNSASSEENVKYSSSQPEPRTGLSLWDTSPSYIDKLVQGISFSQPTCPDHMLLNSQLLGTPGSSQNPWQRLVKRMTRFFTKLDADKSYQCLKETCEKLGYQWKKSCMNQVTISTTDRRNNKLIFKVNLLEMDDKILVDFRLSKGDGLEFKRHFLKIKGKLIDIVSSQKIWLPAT

[7] = biological target: Serine/threonine-protein kinase 38-like (Homo sapiens) (UniProt Q9Y2H1); assay: Selectivity interaction (ActivX KiNativ screen (ex vivo kinase selectivity in human PBMCs)) EUB0001619a STK38L; type: cell-based; settings: PBMC, at 1 µM
Chain of Serine/threonine-protein kinase 38-like (Homo sapiens) (Q9Y2H1 2-464 limits assumed): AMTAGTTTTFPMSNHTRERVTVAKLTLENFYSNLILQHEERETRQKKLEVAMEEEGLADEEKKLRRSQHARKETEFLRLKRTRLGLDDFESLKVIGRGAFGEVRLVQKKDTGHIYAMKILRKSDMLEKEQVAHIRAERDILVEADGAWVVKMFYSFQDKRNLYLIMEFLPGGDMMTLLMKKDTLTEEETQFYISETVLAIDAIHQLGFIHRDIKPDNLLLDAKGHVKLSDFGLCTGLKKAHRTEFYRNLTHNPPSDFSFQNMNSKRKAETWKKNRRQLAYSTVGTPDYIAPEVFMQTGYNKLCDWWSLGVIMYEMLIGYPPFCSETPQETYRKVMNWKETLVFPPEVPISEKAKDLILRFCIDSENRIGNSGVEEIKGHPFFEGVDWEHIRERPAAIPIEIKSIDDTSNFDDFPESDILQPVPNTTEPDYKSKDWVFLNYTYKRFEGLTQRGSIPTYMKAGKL

% of inhibition [1]: -29.3%
SMILES: CC[C@@H]1[C@H](F)C(=O)N[C@@H]1COc1nccc2cc(C(N)=O)c(OC)cc12 [ZIMLOVISERTIB]

SMILES: COc1cc(Nc2nc(C)cc(-c3cnn4nc(OC)ccc34)n2)cc(C(F)(F)F)c1
% of control [2]: 95%

SMILES: CN(C)CCOc1ccc(-c2nc(-c3ccncc3)c(-c3ccc4c(c3)CC/C4=N\O)[nH]2)cc1
% of control [3]: 99%

SMILES: C=CC(=O)Nc1cc(-n2c(=O)ccc3cnc4ccc(-c5ccc(NS(C)(=O)=O)cc5)cc4c32)ccc1C
% of control ([4]; at 1 µM): 52% | % of control ([4]; at 10 µM): 43%

SMILES: COc1cc(N(C)c2ccnc3ccc(C(F)(F)F)cc23)cc(OC)c1OC
% binding [5]: 94%

SMILES: Cc1cc([C@@H](C)Nc2ccccc2C(=O)O)c2nc(N3CCOCC3)cc(=O)n2c1 [AZD-6482]
IC50 [6]: > 1 mM

SMILES: N#Cc1cccc(-c2c[nH]c3ncnc(N4CCOCC4)c23)c1
% of inhibition [7]: 22%
